Measurements from ChEMBL document CHEMBL1134259, “Antitumor agents. Part 204: synthesis and biological evaluation of substituted 2-aryl quinazolinones” (Bioorg Med Chem Lett, 2001).
In brackets after ≈: the same amount, converted by molar mass. Blank lines part the entries; values can stand above or below the molecule they belong to. Activity calls are given as the source filed them. No cut-off for these calls is given here.

What was measured:
[1] = tested on: H9; assay: Concentration required to inhibit uninfected H9 cell growth when tested for anti-HIV activity; type: functional, cell-based; details: Homo sapiens
[2] = tested on: HCT-8; assay: In vitro effective concentration required to reduce the number of human ileocecal carcinoma (HCT-8) after 3-day incubation; type: functional; details: for EC50: HCT-8, 72 h, read-out: ED50 (the source's name)
[3] = tested on: MCF7; assay: In vitro effective concentration required to reduce the number of human breast cancer (MCF-7) after 3-day incubation; type: functional; details: for EC50: 72 h, read-out: ED50 (the source's name)
[4] = tested on: H9; assay: Concentration required to inhibit viral replication in acutely infected H9 lymphocytes when tested for anti-HIV activity; type: functional, cell-based; details: Homo sapiens
[5] = tested on: 1A9; assay: In vitro effective concentration required to reduce the number of human ovarian cancer (1A9) after 3-day incubation; type: functional; details: for EC50: 1A9, 72 h, read-out: ED50 (the source's name)
[6] = tested on: A549; assay: In vitro effective concentration required to reduce the number of human lung carcinoma (A-549) after 3-day incubation; type: functional; details: A549, 72 h, read-out: ED50 (the source's name)
[7] = Therapeutic index (IC50/EC50) was determined.; details: read-out: Therapeutic index
[8] = tested on: SK-MEL-2; assay: In vitro effective concentration required to reduce the number of human melanoma cancer (SKMEL-2) after 3-day incubation; type: functional; details: SK-MEL-2, 72 h, read-out: ED50 (the source's name)
[9] = tested on: KB; assay: In vitro effective concentration required to reduce the number of Human epidermoid carcinoma cells (KB) of nasopharynx after 3-day incubation; type: functional; details: 72 h, read-out: ED50 (the source's name)
[10] = molecular target: Tubulin; assay: Inhibitory concentration required against tubulin polymerization in the antimicrotubule activity test; type: functional
[11] = tested on: KB; assay: In vitro effective concentration required to reduce the number of P-glycoprotein-expressing human epidermoid carcinoma cells (KB-VIN) of nasopharynx after 3-day incubation; type: functional; details: 72 h, read-out: ED50 (the source's name)
[12] = Therapeutic index (IC50/EC50) was determined; Did not dissolve
[13] = tested on: Tumor cell line; assay: Tested for inhibitory activity against growth of about half of NCI's drug screen tumor cell lines at subnanomolar concentrations; type: functional; details: read-out: Log TGI (converted)
[14] = tested on: A549; assay: In vitro effective concentration required to reduce the number of human lung carcinoma cells (A-549) after 3-day incubation; type: functional; details: A549, 72 h, read-out: ED50 (the source's name)
[15] = tested on: SK-MEL-2; assay: In vitro effective concentration required to reduce the number of human melanoma cancer cells (SKMEL-2) after 3-day incubation; type: functional; details: SK-MEL-2, 72 h, read-out: ED50 (the source's name)
[16] = tested on: HCT-8; assay: In vitro effective concentration required to reduce the number of human ileocecal carcinoma cells(HCT-8) after 3-day incubation; type: functional; details: HCT-8, 72 h, read-out: ED50 (the source's name)
[17] = tested on: 1A9; assay: In vitro effective concentration required to reduce the number of human ovarian cancer cells (1A9) after 3-day incubation; type: functional; details: 1A9, 72 h, read-out: ED50 (the source's name)
[18] = tested on: MCF7; assay: In vitro effective concentration required to reduce the number of human breast cancer cells (MCF-7) after 3-day incubation; type: functional; details: MCF7, 72 h, read-out: ED50 (the source's name)

EC50 [2]: > 10 µg/mL
EC50 [3]: 6.6 µg/mL (≈ 19.9 µM)
EC50 [4]: 7.59 µM
EC50 [5]: 7.8 µg/mL (≈ 23.5 µM)
EC50 [6]: 8 µg/mL (≈ 24.1 µM)
EC50 [8]: 8.5 µg/mL (≈ 25.6 µM)
EC50 [9]: 7.3 µg/mL (≈ 22 µM)
IC50 [10]: > 40 µM
EC50 [11]: 1.6 µg/mL (≈ 4.81 µM)
SMILES: COc1cc2nc(-c3ccc4ccccc4c3)nc(O)c2cc1OC
IC50 [1]: 100 µM
selectivity ratio [7]: 13.2

EC50 [2]: 17 µg/mL (≈ 56.6 µM)
EC50 [3]: 13.1 µg/mL (≈ 43.6 µM)
EC50 [4]: 10.9 µM
EC50 [5]: > 20 µg/mL
EC50 [6]: < 5 µg/mL
EC50 [8]: < 5 µg/mL
EC50 [9]: < 5 µg/mL
IC50 [10]: > 40 µM
EC50 [11]: < 5 µg/mL
SMILES: COc1cc2nc(-c3ccccc3F)nc(O)c2cc1OC
IC50 [1]: 100 µM
selectivity ratio [7]: 9.17

EC50 [2]: > 20 µg/mL
EC50 [5]: > 20 µg/mL
EC50 [6]: > 20 µg/mL
EC50 [8]: > 20 µg/mL
IC50 [10]: > 40 µM
EC50 [11]: > 20 µg/mL
SMILES: COc1cc2nc(-c3cccc(F)c3)nc(O)c2cc1OC
ED50 [3]: inactive
Therapeutic index [12]: Did not dissolve

EC50 [2]: > 40 µg/mL
EC50 [3]: 37.5 µg/mL (≈ 133 µM)
EC50 [5]: 4.7 µg/mL (≈ 16.6 µM)
EC50 [6]: 28.1 µg/mL (≈ 99.5 µM)
EC50 [8]: > 40 µg/mL
EC50 [9]: 1.98 µg/mL (≈ 7.01 µM)
IC50 [10]: 4.9 µM
SMILES: COc1cccc(-c2nc(O)c3cc(OC)ccc3n2)c1

EC50 [14]: > 20 µg/mL
EC50 [15]: > 20 µg/mL
EC50 [9]: > 20 µg/mL
EC50 [16]: > 20 µg/mL
IC50 [10]: > 40 µM
EC50 [11]: 17.5 µg/mL (≈ 72.8 µM)
EC50 [17]: 17.1 µg/mL (≈ 71.2 µM)
EC50 [18]: > 20 µg/mL
SMILES: Oc1nc(-c2ccccc2F)nc2ccccc12
Therapeutic index [12]: Did not dissolve

EC50 [2]: > 20 µg/mL
EC50 [3]: 14.5 µg/mL (≈ 46.4 µM)
EC50 [5]: 17.5 µg/mL (≈ 56 µM)
EC50 [6]: > 20 µg/mL
EC50 [9]: > 20 µg/mL
IC50 [10]: 6.5 µM
EC50 [11]: 19 µg/mL (≈ 60.8 µM)
SMILES: COc1cccc(-c2nc(O)c3cc(OC)c(OC)cc3n2)c1

EC50 [2]: > 20 µg/mL
EC50 [3]: 19.8 µg/mL (≈ 65.9 µM)
EC50 [5]: 16 µg/mL (≈ 53.3 µM)
EC50 [6]: > 20 µg/mL
EC50 [8]: > 20 µg/mL
EC50 [9]: > 20 µg/mL
IC50 [10]: > 40 µM
EC50 [11]: > 20 µg/mL
SMILES: COc1cc2nc(-c3ccc(F)cc3)nc(O)c2cc1OC
Therapeutic index [12]: Did not dissolve

Second part, the molecule before the results:

SMILES: COc1cccc(-c2nc(O)c3ccccc3n2)c1
EC50 [2]: > 20 µg/mL
EC50 [3]: > 20 µg/mL
ED50 [5]: inactive
EC50 [6]: > 20 µg/mL
EC50 [8]: > 20 µg/mL
IC50 [10]: 8.6 µM
EC50 [11]: > 20 µg/mL

SMILES: Oc1nc(-c2ccc(F)cc2)nc2ccccc12
IC50 [1]: 38.8 µM
ED50 [2]: inactive
EC50 [3]: > 20 µg/mL
EC50 [4]: 9.18 µM
EC50 [5]: > 20 µg/mL
EC50 [6]: 7.5 µg/mL (≈ 31.2 µM)
selectivity ratio [7]: 4.22
EC50 [8]: > 20 µg/mL
EC50 [9]: > 20 µg/mL
IC50 [10]: > 40 µM
EC50 [11]: 6.5 µg/mL (≈ 27.1 µM)

SMILES: Oc1nc(-c2ccc3ccccc3c2)nc2ccccc12
EC50 [2]: 19.1 µg/mL (≈ 70.1 µM)
EC50 [3]: 10.3 µg/mL (≈ 37.8 µM)
EC50 [5]: 8 µg/mL (≈ 29.4 µM)
EC50 [6]: 14.4 µg/mL (≈ 52.9 µM)
EC50 [8]: 13 µg/mL (≈ 47.7 µM)
EC50 [9]: 12.5 µg/mL (≈ 45.9 µM)
Therapeutic index [12]: Did not dissolve
IC50 [10]: > 40 µM
EC50 [11]: 6 µg/mL (≈ 22 µM)

SMILES: COc1cccc(-c2cc(O)c3cc(N4CCCC4)ccc3n2)c1
TGI [13]: < 0.001 µM

SMILES: Oc1nc(-c2cccc(F)c2)nc2ccccc12
IC50 [1]: 30.7 µM
ED50 [2]: inactive
EC50 [3]: > 20 µg/mL
EC50 [4]: 9.53 µM
EC50 [5]: > 20 µg/mL
EC50 [6]: 9.8 µg/mL (≈ 40.8 µM)
selectivity ratio [7]: 3.22
EC50 [8]: > 20 µg/mL
EC50 [9]: > 20 µg/mL
IC50 [10]: > 40 µM
EC50 [11]: 8.5 µg/mL (≈ 35.4 µM)
